Converted amounts (≈) assume the structure as drawn. Where no end group is shown, it is not given here.

Experimental findings from publication PMC5835169 (Clinical microbiology and infection : the official …, 2017) are described below.

For one series, the system named is P. aeruginosa TRPA111. Type of series: cell-based. As to conditions: MDR strain TRPA111 isolated from cystic fibrosis patients.
Series [1] concerns differentiated primary HBE cells. The experiment in a line: Transepithelial Electrical Resistance. The format is cell-based, human. As to conditions: apical, 24 hours after administration.
A further series deals with P. aeruginosa TRPA321. The format is cell-based. As to conditions: MDR strain TRPA321 isolated from cystic fibrosis patients.
For another series, the system named is P. aeruginosa P004. Type of series: cell-based. As to conditions: MDR strain P004 isolated from cystic fibrosis patients.
For another series, the system named is mouse lungs. The series can be described thus: Pulmonary toxicity in uninfected mice. Type of series: in vivo, C57BL/6J mice. As to conditions: for pulmonary toxicity: 0.35 mg/kg i.t., total inflammatory cells, differential cell counts, inflammation-associated genes; for effect on cell differential and inflammatory mediators in the lungs: uninfected mice, 7µg i.t. (7 times the minimum effective dose), 24h.

The next series concerns P. aeruginosa P005. The format is cell-based. As to conditions: MDR strain P005 isolated from cystic fibrosis patients.
A further series concerns P. aeruginosa P003. Type of series: cell-based. As to conditions: MDR strain P003 isolated from cystic fibrosis patients.
Another series concerns P. aeruginosa TRPA108. Type of series: cell-based. As to conditions: MDR strain TRPA108 isolated from cystic fibrosis patients.
A further series deals with P. aeruginosa P002. The format is cell-based. As to conditions: MDR strain P002 isolated from cystic fibrosis patients.
In another series the test system is P. aeruginosa P001. Type of series: cell-based. As to conditions: MDR strain P001 isolated from cystic fibrosis patients.
Another series relates to HBE cells. The series can be described thus: Toxicity to HBE cells. The format is cell-based, human. As to conditions: 16µM.
The next series deals with P. aeruginosa PAO1. Type of series: cell-based. As to conditions: control strain PAO1 susceptible to antibiotics and AMPs.

On to `CC[C@H](C)[C@H](NC(=O)[C@H](CCCCN)NC(=O)[C@H](CCC(=O)O)NC(=O)[C@H](CCCCN)NC(=O)[C@H](CO)NC(=O)[C@H](CCCCN)NC(=O)[C@H](CCCNC(=N)N)NC(=O)[C@H](Cc1ccccc1)NC(=O)[C@H](Cc1ccccc1)NC(=O)[C@H](CC(=O)O)NC(=O)CNC(=O)[C@H](CC(C)C)NC(=O)[C@@H](N)CC(C)C)C(=O)NCC(=O)N[C@@H](CCCCN)C(=O)N[C@@H](CCC(=O)O)C(=O)N[C@@H](Cc1ccccc1)C(=O)N[C@@H](CCCCN)C(=O)N[C@@H](CCCNC(=N)N)C(=O)N[C@H](C(=O)N[C@H](C(=O)N[C@@H](CCC(N)=O)C(=O)N[C@@H](CCCNC(=N)N)C(=O)N[C@H](C(=O)N[C@@H](CCCCN)C(=O)N[C@@H](CC(=O)O)C(=O)N[C@@H](Cc1ccccc1)C(=O)N[C@@H](CC(C)C)C(=O)N[C@@H](CCCNC(=N)N)C(=O)N[C@@H](CC(N)=O)C(=O)N[C@@H](CC(C)C)C(=O)N[C@H](C(=O)N1CCC[C@H]1C(=O)N[C@@H](CCCNC(=N)N)C(=O)N[C@H](C(=O)N[C@@H](CCC(=O)O)C(=O)N[C@@H](CO)C(=O)O)[C@@H](C)O)C(C)C)[C@@H](C)CC)C(C)C)[C@@H](C)CC` [LL37, reference compound], for which the minimal inhibitory concentration (MIC) was found to be 2 µM (≈ 8.99 µg/mL) in the series with P. aeruginosa TRPA111; 32 µM (≈ 144 µg/mL) in the series with P. aeruginosa TRPA321; 8 µM (≈ 35.9 µg/mL) in the series with P. aeruginosa P004; 8 µM (≈ 35.9 µg/mL) against P. aeruginosa P005; 32 µM (≈ 144 µg/mL) in the series on P. aeruginosa P003; 2 µM (≈ 8.99 µg/mL) against P. aeruginosa TRPA108. In addition, the minimal inhibitory concentration (MIC) in the series on P. aeruginosa P002 and in the series with P. aeruginosa P001 was 32 µM (≈ 144 µg/mL) throughout. For the same compound, the “final reduction in TEER / recovery” value is given as 1/2 in series [1] (32µM peptide in PBS) and 2/3 in [1] (64µM peptide in PBS). Moreover, the pulmonary toxicity entry in the series on mouse lungs is “does not cause pulmonary toxicity”. The “effect on cell differential and inflammatory mediators in the lungs” value with mouse lungs is “no effect”.

With RRWVRRVRRVWRRVVRVVRRWVRR [WLBU2], the minimal inhibitory concentration (MIC) in the series on P. aeruginosa TRPA111 was found to be 1 µM; against P. aeruginosa TRPA321, 2 µM; with P. aeruginosa P004 it was 2 µM; with P. aeruginosa P005, 2 µM; against P. aeruginosa P003, 6 µM; against P. aeruginosa TRPA108 it was 1 µM. The MIC is 2 µM in the series with P. aeruginosa PAO1, 4 µM in the series on P. aeruginosa P002 and 6 µM in the series on P. aeruginosa P001. Further, in the series with HBE cells, the “toxicity to HBE cells” value is “not toxic”. The “final reduction in TEER / recovery” value in series [1] (32µM peptide in PBS) and in series [1] (64µM peptide in PBS) was “completely recovered” in each case. Further, in the series with mouse lungs, the pulmonary toxicity result is listed as “does not cause pulmonary toxicity”. The “effect on cell differential and inflammatory mediators in the lungs” value with mouse lungs is on record as “no effect”.

One may read the MIC as the lowest concentration that inhibits growth of the organism. High values mean a less susceptible organism, low ones a more susceptible organism.
